Laboratory results: patent US20130344026A1, “Dimeric Smac Mimetics” (priority 2009, published 2013)
Read-outs that look alike come from different tables or passages of the source.

Test system: PANC-1 cells
Assay: cell viability assay in PANC-1 cells (compound alone, + 100 ng/ml TNFa, + 300 ng/ml TRAIL)
Type: cell-based
[1] = PANC-1 cells, + 100 ng/ml TNFa, read-out: IC50 (uM) in cell viability assay in PANC-1 cells, Cmpnd + 100 ng/ml TNFa
[2] = PANC-1 cells, + 300 ng/ml TRAIL, read-out: IC50 (uM) in cell viability assay in PANC-1 cells, Cmpnd + 300 ng/ml TRAIL
[3] = Homo sapiens, PANC-1, compound alone, Tables 6-10, read-out: IC50 (μM) in cell viability assay in PANC-1 cells: Compound alone
[4] = with 100 ng/ml TNFa, Tables 6-10, read-out: IC50 (μM) in cell viability assay in PANC-1 cells: Compound + 100 ng/ml TNFa
[5] = with 300 ng/ml TRAIL, Tables 6-10, read-out: IC50 (μM) in cell viability assay in PANC-1 cells: Compound + 300 ng/ml TRAIL
[6] = Homo sapiens, PANC-1, compound alone, Tables 15-18, read-out: IC50 (uM) in cell viability assay in PANC-1 cells: Cmpnd alone
[7] = with 100 ng/ml TNFa, Tables 15-18, read-out: IC50 (uM) in cell viability assay in PANC-1 cells: Cmpnd + 100 ng/ml TNFa
[8] = with 300 ng/ml TRAIL, Tables 15-18, read-out: IC50 (uM) in cell viability assay in PANC-1 cells: Cmpnd + 300 ng/ml TRAIL

IC50 [3] [µM] | IC50 [4] [µM] | IC50 [5] [µM] | SMILES | further results
– | – | – | CN[C@@H](C)C(=O)N[C@H](C(=O)N1C[C@@H](NC(=O)C2CCCC(C(=O)N[C@H]3C[C@@H](C(=O)N[C@H](C)c4ccccc4)N(C(=O)[C@@H](NC(=O)[C@H](C)NC)C(C)(C)C)C3)C2)C[C@H]1C(=O)N[C@H](C)c1ccccc1)C(C)(C)C (stereo partly shown) [Compound P3-97] | IC50 [1]: 0.059 µM; IC50 [2]: 0.065 µM; IC50 (PANC-1 cells, compound alone, read-out: IC50 (uM) in cell viability assay in PANC-1 cells, Cmpnd alone): > 1 µM
> 1 | 0.0046 | 0.0059 | CN[C@@H](C)C(=O)N[C@H](C(=O)N1CCC[C@H]1Cn1nnnc1Sc1ccccc1)[C@@H](C)OCC#Cc1cccc(C#CCO[C@@H](C)[C@@H](NC(=O)[C@@H](C)NC)C(=O)N2CCC[C@@H]2Cn2nnnc2Sc2ccccc2)c1 [Compound 116] | –
> 1 | > 1 | > 1 | CN[C@@H](C)C(=O)N[C@H](C(=O)N1CCC[C@H]1Cn1cnnc1Cc1ccccc1)[C@@H](C)OCC#CC#CCO[C@H](C)[C@H](NC(=O)[C@H](C)NC)C(=O)N1CCC[C@H]1Cn1cnnc1Cc1ccccc1 [Compound 80] | –
> 1 | 0.236 | 0.122 | CCC1(NC(=O)[C@@H]2C[C@H](NC(=O)c3cccc(C(=O)N[C@H]4C[C@@H](C(=O)NC5(CC)CCCc6ccccc65)N(C(=O)[C@@H](NC(=O)[C@H](C)NC)C(C)(C)C)C4)c3)CN2C(=O)[C@@H](NC(=O)[C@H](C)NC)C(C)(C)C)CCCc2ccccc21 (stereo partly shown) [Compound 50] | –
> 1 | 0.01 | 0.019 | CN[C@@H](C)C(=O)N[C@H](C(=O)N1C[C@@H](NC(=O)c2cccc(C(=O)N[C@H]3C[C@@H](C(=O)N[C@H](C)c4ccccc4)N(C(=O)[C@@H](NC(=O)[C@H](CO)NC)C(C)(C)C)C3)c2)C[C@H]1C(=O)N[C@@H]1CCCc2ccccc21)C(C)(C)C [Compound 173] | –
– | – | – | CN[C@@H](C)C(=O)N[C@H](C(=O)N1C[C@@H](NC(=O)CCCCCCCCC(=O)N[C@H]2C[C@@H](C(=O)N[C@H](C)c3ccccc3)N(C(=O)[C@@H](NC(=O)[C@H](C)NC)C(C)(C)C)C2)C[C@H]1C(=O)N[C@H](C)c1ccccc1)C(C)(C)C [Compound P3-93] | IC50 (Homo sapiens, PANC-1 cells, compound alone, read-out: IC50 (uM) in cell viability assay in PANC-1 cells, Cmpnd alone): > 1 µM; IC50 [1]: 0.012 µM; IC50 [2]: 0.043 µM
> 1 | 0.064 | 0.069 | CN[C@@H](C)C(=O)N[C@@H](CCCCCC[C@H](NC(=O)[C@H](C)NC)C(=O)N1CC[C@H]1C(=O)N[C@@H]1CCCc2ccccc21)C(=O)N1CC[C@H]1C(=O)N[C@@H]1CCCc2ccccc21 [Compound 102] | –
– | – | – | CN[C@@H](C)C(=O)N[C@@H](CCNCc1ccc(CNCC[C@H](NC(=O)[C@H](C)NC)C(=O)N2CCC[C@H]2C(=O)N[C@@H]2CCCc3ccccc32)cc1)C(=O)N1CCC[C@H]1C(=O)N[C@@H]1CCCc2ccccc21 [Compound P2-43] | IC50 [6]: > 1 µM; IC50 [7]: 0.012 µM; IC50 [8]: 0.016 µM
– | – | – | CN[C@@H](C)C(=O)N[C@@H](CCCCNC(=O)NCCCC[C@H](NC(=O)[C@H](C)NC)C(=O)N1C[C@@H](Oc2ccccc2)C[C@H]1C(=O)N[C@@H]1CCCc2ccccc21)C(=O)N1C[C@@H](Oc2ccccc2)C[C@H]1C(=O)N[C@@H]1CCCc2ccccc21 [Compound P2-37] | IC50 [6]: > 1 µM; IC50 [7]: 0.174 µM; IC50 [8]: 0.527 µM
> 1 | – | – | CN[C@@H](C)C(=O)N[C@H](C(=O)N1C[C@@H](OC(=O)c2cccc(C(=O)O[C@H]3C[C@@H](C(=O)N[C@H]4CCCc5ccccc54)N(C(=O)[C@@H](NC(=O)[C@H](C)NC)C(C)(C)C)C3)c2)C[C@H]1C(=O)N[C@H]1CCCc2ccccc21)C(C)(C)C [Compound 206] | –

SMILES | IC50 [3] [µM] | IC50 [4] [µM] | IC50 [5] [µM] | further results
CN[C@@H](C)C(=O)N[C@@H](CCC(=O)Nc1ccc2c(c1)Cc1cc(NC(=O)CC[C@H](NC(=O)[C@H](C)NC)C(=O)N3CCC[C@H]3C(=O)N[C@@H]3CCCc4ccccc43)ccc1-2)C(=O)N1CCC[C@H]1C(=O)N[C@@H]1CCCc2ccccc21 [Compound 117] | > 1 | 0.02 | 0.025 | –
CN[C@@H](C)C(=O)N[C@H](C(=O)N1CCC[C@H]1C(=O)N[C@H](C)c1ccccc1)[C@H](C)NC(=O)c1ccc(C(=O)N[C@@H](C)[C@H](NC(=O)[C@H](C)NC)C(=O)N2CCC[C@H]2C(=O)N[C@H](C)c2ccccc2)cc1 [Compound 114] | > 1 | 0.199 | 0.184 | –
